Measured values taken from PMC10922802 (Journal of the American Chemical Society, 2023).
Where two headings read alike, the source gives them in different places. Blank lines part the entries; values can stand above or below the compound they belong to.

Legend:
Format in all cases: biochemical
PglC (Cj) [1] = biological target: T1, PglC (Cj) (Campylobacter jejuni, UniProt Q0P9D0); test: PGT activity assay with UDP-diNAcBac, percent inhibition at […]; details: read-out: % inhibition at 100 μM
T1 sequence (Q0P9D0 1-200): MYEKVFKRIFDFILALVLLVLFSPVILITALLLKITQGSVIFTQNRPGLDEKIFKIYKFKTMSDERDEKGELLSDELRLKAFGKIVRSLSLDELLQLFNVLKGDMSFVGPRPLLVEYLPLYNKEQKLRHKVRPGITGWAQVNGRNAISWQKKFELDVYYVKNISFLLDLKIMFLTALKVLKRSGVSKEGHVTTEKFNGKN

PglC (Cj) [2] = biological target: T1, PglC (Cj)
PglC (Cj) [3] = biological target: T1, PglC (Cj); test: PGT activity assay with UDP-diNAcBac, percent inhibition at […]; details: read-out: % inhibition at 100 μM; remark: listed apart in the source
WecA (Tm) = biological target: T2, WecA (Tm) (Thermotoga maritima, UniProt Q9X1N5); test: PGT activity assay
T2 sequence (Q9X1N5 1-291): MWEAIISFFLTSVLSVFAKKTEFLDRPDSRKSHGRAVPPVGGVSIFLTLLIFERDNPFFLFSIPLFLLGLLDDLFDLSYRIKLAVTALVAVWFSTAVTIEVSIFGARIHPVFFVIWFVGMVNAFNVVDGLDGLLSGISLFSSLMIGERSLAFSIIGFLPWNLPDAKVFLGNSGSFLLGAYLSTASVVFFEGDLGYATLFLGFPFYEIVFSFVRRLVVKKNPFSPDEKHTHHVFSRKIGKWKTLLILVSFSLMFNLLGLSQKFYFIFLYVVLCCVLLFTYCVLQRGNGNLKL

inhibition at 100 µM (PglC (Cj) [1]): 33 ± 6%
SMILES: O=c1ccn([C@@H]2O[C@H](COP(=O)(O)C(F)(F)P(=O)(O)O)[C@@H](O)[C@H]2O)c(=O)[nH]1 [compound 3, H-CF2]

IC50 (PglC (Cj) [2]): 32 ± 5.3 µM
SMILES: CC(=O)N[C@H]1[C@@H](OP(=O)(O)C(F)(F)P(=O)(O)OC[C@H]2O[C@@H](n3ccc(=O)[nH]c3=O)[C@H](O)[C@@H]2O)O[C@H](CO)[C@@H](O)[C@@H]1O [compound 4, α-GlcNAc-CF2]

inhibition at 100 µM (PglC (Cj) [3]): 52 ± 10%
SMILES: CC(=O)N[C@H]1[C@@H](OP(=O)(O)[C@@H](F)P(=O)(O)OC[C@H]2O[C@@H](n3ccc(=O)[nH]c3=O)[C@H](O)[C@@H]2O)O[C@H](CO)[C@@H](O)[C@@H]1O [compound 7, α-GlcNAc-(S)-CHF]

IC50 (WecA (Tm)): 41 ± 10 µM
inhibition at 100 µM (PglC (Cj) [3]): 28 ± 12%
SMILES: CC(=O)N[C@H]1[C@@H](OP(=O)(O)CP(=O)(O)OC[C@H]2O[C@@H](n3ccc(=O)[nH]c3=O)[C@H](O)[C@@H]2O)O[C@H](CO)[C@@H](O)[C@@H]1O [compound 11, α-GlcNAc-CH2]
